Experimental data from patent US11266710B2, “Angio-3 for treatment of retinal angiogenic diseases” (SINGAPORE HEALTH SERVICES PTE LTD, priority 2017, dated 2022).

Test system: KIMBA mice (KIMBA-hVEGF Transgenic)
Assay: Retinal angiogenesis (FFA leakage) in KIMBA mice
Assay type: in vivo, mouse
Details: single IVT injection 1 μg in 1 μL
Excerpt: FIGS. 1A, 1B, 1C and 1D show the efficacy of a single IV dose of angio-3 in attenuating the retinal angiogenesis in KIMBA mice, which have over expression of human VEGF (KIMBA-hVEGF Transgenic). FIG. 1A is a schematic of the experimental design. FIG. 1B are images showing Fundus Fluorescein Angiography (FFA) images of baseline and weekly after post treatment. Digital color fundus photographs were taken using a MICRON IV comprehensive system for rodent retinal imaging (Phoenix Research Labs, Pleasanton, Calif.) after pupil dilatation with topical administration of 1% tropicamide (Alcon Laboratories, Inc., Fort Worth, Tex.) and 2.5% phenylephrine (Bausch and Lomb Pharmaceuticals, Inc., Tampa, Fla.) ophthalmic solutions. […] Readout is the leakage of retinal vascularization post-administration of the drug. n=6 eyes per batch; n=3 batches; Values are expressed as means±s.e.m., **P<0.01, *P<0.05, student's t-test. […] All imaging was performed with a laser-scanning confocal fluorescence microscope.
FIGS. 2A, 2B, 2C and 2D show the efficacy of a single IVT dose of angio-3 and Eylea (anti-VEGF), positive control in attenuating the retinal angiogenesis in KIMBA mice. […] Readout is the leakage of retinal vascularization post-administration of the drug. n=10 eyes per batch; n=2 batches; Values are expressed as means±s.e.m., **P<0.01, *P<0.05, student's t-test. […]

With “Eylea: Eylea (anti-VEGF), positive control; clinical compound [reference compound]” the “duration of effect in attenuating retinal angiogenesis post treatment” value was 4 weeks.
